Laboratory results published in ChEMBL document CHEMBL1201862, “PubChem BioAssay data set” (2004).
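Growth conditions: 96-well plates. Treatment: test compound, 48 hours, 5 concentrations. Analysis: linear interpolation between bracketing concentrations; unreached endpoints set to highest concentration. Here, GI50 denotes the concentration required for 50% inhibition of growth.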 Calls of active or inactive are those of the source. Cut-off read from the data, not from the text of the source: active = GI50 up to about 1.1 µM and inactive = higher.

Assays:
Assay in all cases: inhibition of tumour cell growth, NCI panel, 48 h
[1] = test system: HL-60
[2] = test system: SW-620
[3] = test system: HCC 2998
[4] = test system: SK-MEL-5
[5] = test system: NCI-H460
[6] = test system: SNB-75
[7] = test system: TK-10
[8] = test system: SF-539
[9] = test system: IGROV-1
[10] = test system: HCT-15
[11] = test system: NCI-H23
[12] = test system: HCT-116
[13] = test system: RPMI-8226
[14] = test system: A549
[15] = test system: U-251
[16] = test system: Malme-3M
[17] = test system: COLO 205
[18] = test system: K562
[19] = test system: A498
[20] = test system: UACC-62

Row | Structure (SMILES) | GI50 [1] | GI50 [2] | GI50 [3] | GI50 [4] | GI50 [5] | GI50 [6] | GI50 [7] | GI50 [8] | GI50 [9] | GI50 [10] | GI50 [11] | GI50 [12] | GI50 [13] | GI50 [14] | GI50 [15] | GI50 [16] | GI50 [17] | GI50 [18] | GI50 [19] | GI50 [20]
1 | Cc1cccc(C(C)C)c1NC(=O)CC1Sc2ccccc2NC1=O (stereo not given) | 46.9 µM (inactive) | 76.4 µM (inactive) | > 100 µM (inactive) | 35.4 µM (inactive) | > 100 µM (inactive) | 60.3 µM (inactive) | > 100 µM (inactive) | > 100 µM (inactive) | > 100 µM (inactive) | 70.1 µM | > 100 µM (inactive) | 55.6 µM (inactive) | 57.4 µM (inactive) | 87.3 µM (inactive) | > 100 µM (inactive) | 31.8 µM (inactive) | > 100 µM (inactive) | 33.1 µM (inactive) | 72.4 µM (inactive) | 44.4 µM (inactive)
2 | CC1=C(C)SC(=C2Sc3c(n(C)c(=O)[nH]c3=O)S2)S1 | > 100 µM (inactive) | > 100 µM (inactive) | > 100 µM (inactive) | > 100 µM (inactive) | > 100 µM (inactive) | > 100 µM (inactive) | > 100 µM (inactive) | > 100 µM (inactive) | > 100 µM (inactive) | > 100 µM | > 100 µM (inactive) | > 100 µM (inactive) | > 100 µM (inactive) | > 100 µM (inactive) | > 100 µM (inactive) | > 100 µM (inactive) | > 100 µM (inactive) | > 100 µM (inactive) | > 100 µM (inactive) | > 100 µM (inactive)
3 | Cc1ccc2c(c1)C(=O)N(N(C)C)CC(=O)N2 | > 100 µM (inactive) | > 100 µM (inactive) | > 100 µM (inactive) | > 100 µM (inactive) | > 100 µM (inactive) | 35.2 µM (inactive) | > 100 µM (inactive) | > 100 µM (inactive) | > 100 µM (inactive) | > 100 µM | > 100 µM (inactive) | > 100 µM (inactive) | > 100 µM (inactive) | > 100 µM (inactive) | > 100 µM (inactive) | > 100 µM (inactive) | > 100 µM (inactive) | > 100 µM (inactive) | > 100 µM (inactive) | > 100 µM (inactive)
